Data published in patent US10751380B2, “Compound and method for treating spasms, inflammation and pain” (priority 2018, dated 2020).
Where “and” joins values, the source holds several entries; their conditions need not be identical. Equal entries are not always repeated. Where two headings read alike, the source gives them in different places.

Tests used:
[1] = cited from earlier work
[2] = target: μ-subtype opioid receptor (MOR) (Homo sapiens, UniProt P35372); details: cited from earlier work
[3] = cited from earlier work; remark: listed apart in the source
[4] = cited from earlier work; remark: listed apart in the source
[5] = cited from earlier work; remark: listed apart in the source
[6] = 2 mg/mL; cited from earlier work
[7] = cited from earlier work; remark: listed apart in the source
[8] = man, cited from earlier work
[9] = animal studies, compared with codeine; cited from earlier work
[10] = cited from earlier work; remark: listed apart in the source
[11] = mice, subcutaneous; cited from earlier work
[12] = mice, oral administration; cited from earlier work
[13] = mice, cited from earlier work
[14] = topical; cited from earlier work
[15] = cited from earlier work; remark: listed apart in the source
[16] = cited from earlier work; remark: listed apart in the source
[17] = of 750 courses of oral therapy; cited from earlier work
[18] = cited from earlier work; for analgesic effect versus placebo: 5 mg of THC and 50 mg of codeine
[19] = doses of 15 and 20 mg; cited from earlier work
[20] = 20 mg of THC and 120 mg of codeine; cited from earlier work
[21] = cited from earlier work; for excretion: as acid metabolites
[22] = dogs, cited from earlier work
[23] = monkeys, up to 9000 mg/kg THC; cited from earlier work
[24] = oral, dissolved in sesame oil, cited from earlier work
[25] = cited from earlier work; remark: listed apart in the source
[26] = Acute oral toxicity of THC in rats (Thompson 1973); details: 150 lb., female or male, respectively
[27] = 50 mg of THC daily, P<0.01; cited from earlier work
[28] = by mouth, immediate-release formulation; cited from earlier work

μ-subtype opioid receptor (MOR), sequence (P35372 whole entry): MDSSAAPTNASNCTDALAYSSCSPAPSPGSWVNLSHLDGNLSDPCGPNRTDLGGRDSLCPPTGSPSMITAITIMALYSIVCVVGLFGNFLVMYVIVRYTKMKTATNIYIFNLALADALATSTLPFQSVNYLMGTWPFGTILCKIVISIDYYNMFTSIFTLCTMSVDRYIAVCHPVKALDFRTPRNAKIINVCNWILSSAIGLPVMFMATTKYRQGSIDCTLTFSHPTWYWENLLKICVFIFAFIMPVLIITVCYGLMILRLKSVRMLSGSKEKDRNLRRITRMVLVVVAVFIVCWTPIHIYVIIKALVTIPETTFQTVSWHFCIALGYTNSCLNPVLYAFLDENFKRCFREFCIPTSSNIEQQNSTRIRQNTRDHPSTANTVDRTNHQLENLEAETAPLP

CC[C@@H]1CN2CCc3c([nH]c4cccc(OC)c34)[C@H]2C[C@@H]1/C(=C\OC)C(=O)OC (stereo in doubt) [mitragynine, (aE,2S,3S,12bS)-3-ethyl-1,2,3,4,6,7,12,12b-octahydro-8-methoxy-α-(methoxymethylene)-indolo[2,3-a]quinolizine-2-acetic acid methyl ester]
pKa ([1]; conventional UV): 8.11±0.11 | pKa ([1]; microplate reader determination): 8.08±0.04 | activity at the μ-subtype opioid receptor (MOR) [2]: partial agonists | log P [3]: 1.73 and 1.70 | total drug release in in vitro dissolution ([4]; simulated gastric fluid (SGF)): higher | drug release in in vitro dissolution ([4]; simulated intestinal fluid (SIF)): prolonged and incomplete | 2-deoxy-D-glucose-stimulated gastric acid secretion ([5]; administration into fourth ventricle of anesthetized rats, reversed by naloxone): inhibition of 2-deoxy-D-glucose-stimulated gastric acid secretion in a dose dependent manner | basal gastric acid secretion ([5]; administration into the lateral ventricle): did not alter | nerve conduction, compound nerve action potential [6]: blocked the nerve conduction, amplitude and duration of compound nerve action potential | water solubility [7]: < 100 µg/mL | urine excretion of unchanged form ([8]; 24-hour period): 0.14% | apparent volume of distribution ([8]; oral Kratom tea, nine subjects): 38.04 ± 24.32 L/kg | terminal half-life ([8]; oral Kratom tea, nine subjects): 23.24 ± 16.07 h | time to reach the maximum plasma concentration ([8]; oral Kratom tea, nine subjects): 0.83 ± 0.35 h | antinociceptive and cough-suppressant effects [9]: comparable to those of codeine | lethality ([10]; rats, 200 mg/kg): lethal effects | toxicity ([10]; rodents, dose levels of 800-900 mg/kg): no toxicity

CC[C@@H]1CN2CC[C@@]3(O)C(=Nc4cccc(OC)c43)[C@@H]2C[C@@H]1/C(=C\OC)C(=O)OC [7-hydroxymitragynine, (αE,2S,3S,7aS,12bS)-3-ethyl-1,2,3,4,6,7,7a,12b-octahydro-7a-hydroxy-8-methoxy-α-(methoxymethylene)-indolo[2,3-a]quinolizine-2-acetic acid methyl ester]
gastrointestinal transit [11]: inhibition of the gastrointestinal transit | activity at the μ-subtype opioid receptor (MOR) [2]: partial agonists | analgesic potency relative to morphine [12]: thirteen times more potent analgesic than morphine

C=C(C)[C@@H]1CCC(C)=C[C@H]1c1c(O)cc(CCCCC)cc1O [CBD, cannabidiol]
effectiveness at inhibition of PBQ-induced writhing among cannabinoids ([13]; oral, 100 micrograms/kg): most effective

CCCCCc1cc(O)c2c(c1)OC(C)(C)c1ccc(C)cc1-2 [CBN, cannabinol]
antagonism of TPA-induced erythema of skin [14]: least effective | inhibition of PBQ-induced writhing ([13]; doses higher than 10 mg/kg): 40%

CC(=O)Oc1cc(O[C@H](C)CCCc2ccccc2)cc2c1[C@@H]1C[C@H](O)CC[C@H]1[C@H](C)N2 [Levonantradol]
analgesia versus placebo ([15]; human small RCTs): superior to placebo | patients reporting sedation ([15]; in vivo): almost half the patients | analgesia versus placebo ([16]; 1.5, 2, 2.5, 3 mg intermuscular, all doses, at least P<0.05, no dose-response): significantly superior to placebo | patients reporting at least one side-effect ([16]; human, in vivo): 57%

CCCCCc1cc(O)c2c(c1)OC(C)(C)[C@@H]1CCC(C)=C[C@@H]21 [THC, (−)-(6aR,10aR)-6,6,9-trimethyl-3-pentyl-6a,7,8,10a-tetrahydro-6H-benzo[c]chromen-1-ol]
poor or partial response [17]: approximately 65% | analgesia versus placebo ([15]; human small RCTs): significantly superior to placebo | time of peak analgesia ([15]; human small RCTs): around 5 hours | antagonism of TPA-induced erythema of skin [14]: least effective | analgesic effect versus placebo [18]: analgesic effect in comparison with placebo | effect on spasticity ([18]; 5 mg of THC): significant effect on spasticity | pain relief versus placebo [19]: significantly superior to placebo | analgesic effectiveness, THC versus codeine [20]: equally effective | excretion ([21]; feces): 65-80% | bioavailability ([21]; healthy adults): 10-20% | biological half-life ([21]; in vivo): 1.6-59 h | metabolism ([21]; in vivo): mostly hepatic by CYP2C | bioavailability ([21]; inhalation): 10-35% | absolute bioavailability ([21]; oral administration, on an average): 13% | bioavailability ([21]; oral): 6-20% | biological half-life ([21]; orally administered dronabinol): 25-36 h | excretion ([21]; urine): 20-35% | minimum lethal oral dose ([22]; oral): more than 3 g/kg | death due to toxicity at maximum dose ([22]; up to 3000 mg/kg THC): no cases of death | death due to toxicity at maximum dose [23]: no cases of death | LD50 ([24]; female rats): 730 mg/kg | LD50 ([24]; male rats): 1270 mg/kg | patients who experienced sedation ([25]; 10 mg/m2): one-third | patients with euphoria ([25]; 10 mg/m2): majority of patients | patients' self-reports of nausea and vomiting versus placebo ([25]; 22 cancer patients resistant to conventional anti-emetics, oral): statistically superior to placebo | LD50 scaled up to an adult human [26]: 50 to 86 g | morphine requirement during active treatment [27]: significantly reduced | dose at which maximally effective in the PBQ test ([13]; dose that induced catalepsy): 10 mg/kg

COc1cccc(C2(O)CCCCC2CN(C)C)c1 (centres unmarked) [Tramadol]
onset of pain relief [28]: within an hour

COc1ccc2c3c1O[C@H]1[C@@H](O)C=C[C@H]4[C@@H](C2)N(C)CC[C@@]341 [codeine]
analgesic effect versus placebo [18]: analgesic effect in comparison with placebo | analgesic effectiveness, THC versus codeine [20]: equally effective

CCCCCc1cc(O)cc(O)c1 [olivetol]
dose of maximal effect in the PBQ test [13]: about 100 micrograms/kg
